Data on three compounds can be found in US20060063792A1, “Substituted morphinans and methods of their use” (Adolor Corporation, priority 2004, published 2006).

As usually defined, the Ki is the dissociation constant of the complex between target and ligand, obtained from inhibition or displacement. A low value points to higher affinity. For orientation: IC50 means the midpoint of a concentration-inhibition curve.

Assay [1] concerns the target T1, μ opioid receptor (Homo sapiens, UniProt P35372).
T1 construct: expressed in transfected cells
Nature of the assay: [3H]diprenorphine receptor binding, cloned human μ opioid receptor. As to the method: The potencies of the compounds were determined by testing the ability of a range of concentrations of each compound to inhibit the binding of the non-selective opioid antagonist, [^3H]diprenorphine, to the cloned human μ, κ, and δ opioid receptors, expressed in separate cell lines. IC50 values were obtained by nonlinear analysis of the data using GraphPad Prism version 3.00 for Windows (GraphPad Software, San Diego). Ki values were obtained by Cheng-Prusoff corrections of IC50 values.
The receptor binding method (DeHaven and DeHaven-Hudkins, “Characterization of Opioid Receptors”, Current Protocols in Pharmacology (Eds. Enna S J and Williams M) 1.4.1-1.4.12, John Wiley & Sons, Inc., New York (1998)) was a modification of the method of Raynor, et al., Mol. Pharmacol. 45:330-334 (1994). After dilution in buffer A and homogenization as before, membrane proteins (10-80 μg) in 250 μL were added to mixtures containing test compound and [^3H]diprenorphine (0.5 to 1.0 nM, 40,000 to 50,000 dpm) in 250 μL of buffer A in 96-well deep-well polystyrene titer plates (Beckman). […] The filters were rinsed 4 times with 1 mL of cold 50 mM Tris HCl, pH 7.8 and radioactivity remaining on the filters determined by scintillation spectroscopy. Nonspecific binding was determined by the minimum values of the titration curves and was confirmed by separate assay wells containing 10 μM naloxone. Ki values were determined by Cheng-Prusoff corrections of IC50 values derived from nonlinear regression fits of 12 point titration curves using GraphPad Prism® version 3.00 for Windows (GraphPad Software, San Diego, Calif.).
To determine the equilibrium dissociation constant for the inhibitors (Ki), radioligand bound (cpm) in the presence of various concentrations of test compounds was measured. […] The Ki values were then determined from the […] values by the following equation, [formula] where [ligand] is the concentration of radioligand and Kd is the equilibrium dissociation constant for the radioligand.

In assay [2] the target is T1, μ opioid receptor. Nature of the assay: Inhibition of agonist (loperamide)-stimulated [35S]GTPγS binding to membranes with cloned human μ opioid receptor. It is filed as biochemical. As to the method: The potencies of the antagonists were assessed by their abilities to inhibit agonist-stimulated [^35S]GTPγS binding to membranes containing the cloned human μ, κ, or δ opioid receptors. The agonists used were loperamide for the μ opioid receptor, U50488H for the κ opioid receptor, and BW373U86 for the δ opioid receptor.
To determine the IC50 value, which was the concentration to give half-maximal inhibition of agonist-stimulated [^35S]GTPγS binding, the amount of [^35S]GTPγS bound in the presence of a fixed concentration of agonist and various concentrations of antagonist was measured. The fixed concentration of agonist was the EC80 for the agonist, which was the concentration to give 80% of the relative maximum stimulation of […] binding. The IC50 value was determined from a best nonlinear regression fit of the data to the following equation, [formula] where Y is the amount of [^35S]GTPγS bound at each concentration of antagonist, Bottom is the calculated amount of [^35S]GTPγS bound in the presence of an infinite concentration of antagonist, Top is the calculated amount of [^35S]GTPγS bound in the absence of added antagonist, X is the logarithm of the concentration of antagonist, and LogIC50 is the logarithm of the concentration of antagonist where the amount of [^35S]GTPγS bound is halfway between Bottom and Top. The nonlinear regression fit was performed using GraphPad Prism® version 3.00 for Windows (GraphPad Software, San Diego, Calif.). Mouse Gastrointestinal Transit (GIT) Assay (in vivo Assay)
(In general: GTPγS resists hydrolysis and so accumulates on activated G proteins.)

T1 sequence (P35372 whole entry): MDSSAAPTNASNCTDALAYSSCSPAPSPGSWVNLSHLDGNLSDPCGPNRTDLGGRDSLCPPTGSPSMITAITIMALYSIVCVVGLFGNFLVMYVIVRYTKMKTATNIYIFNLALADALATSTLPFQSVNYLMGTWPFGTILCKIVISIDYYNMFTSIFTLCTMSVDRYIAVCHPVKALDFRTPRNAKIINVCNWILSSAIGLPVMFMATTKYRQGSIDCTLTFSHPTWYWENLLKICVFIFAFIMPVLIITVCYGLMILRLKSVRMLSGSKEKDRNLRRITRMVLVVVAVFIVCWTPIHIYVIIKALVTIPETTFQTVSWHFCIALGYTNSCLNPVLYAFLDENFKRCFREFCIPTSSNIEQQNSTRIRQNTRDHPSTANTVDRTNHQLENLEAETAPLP

In the case of `O=C(O)CNC(=O)/C=C1/CC[C@@]2(O)[C@H]3Cc4ccc(O)c5c4[C@@]2(CCN3CC2CC2)[C@H]1O5` [Example 33, 4,5α-Epoxy-3,14β-dihydroxy-6,6Z(N-acryloylamino-acetic acid)-17-(cyclopropylmethyl)morphinan], the affinity at μ opioid receptor [1], expressed as Ki, was 3 nM. For the same compound, at μ opioid receptor [2], the IC50 worked out at 21.3 nM.
The like results for `CC(=O)N[C@@]12CC[C@H](NCc3ccccc3)[C@@H]3Oc4c(O)ccc5c4[C@@]31CCN(CC1CC1)[C@@H]2C5` [Example 73, 4,5α-Epoxy-3-hydroxy-14β-acetylamino-6-α-benzylamino-17-(cyclopropylmethyl)morphinan] were, in that order, 2.8 nM and 4.2 nM.
Turning to `O=C(O)CCCC(=O)N[C@@]12CCC(=O)[C@@H]3Oc4c(O)ccc5c4[C@@]31CCN(CC1CC1)[C@@H]2C5` [Example 85], the affinity on μ opioid receptor [1] corresponds to a Ki of 4.1 nM. The IC50 at μ opioid receptor [2] amounted to 1.1 nM.
